Assay results from ChEMBL document CHEMBL1123991 (J Med Chem, 1988).

Legend:
D(2) dopamine receptor = D(2) dopamine receptor (Rattus norvegicus, UniProt P61169); assay: Inhibition of 0.1 nM of [125I]- (S)-N-(1-Ethyl-pyrrolidin-2-ylmethyl)-5-iodo-2-methoxy-benzamide binding in striatal homogenates of rat brain; type: tissue-based
Rattus norvegicus [1] = assay: Regional uptake of [125I]- (S)-N-(1-Ethyl-pyrrolidin-2-ylmethyl)-5-iodo-2-methoxy-benzamide in rat cerebellum 60 min after intravenous administration; type: functional, organism-based
Rattus norvegicus [2] = assay: Regional uptake of [125I]- (S)-N-(1-Ethyl-pyrrolidin-2-ylmethyl)-5-iodo-2-methoxy-benzamide in rat frontal cortex 60 min after intravenous administration; type: functional, organism-based
Rattus norvegicus [3] = assay: Regional uptake of [125I]- (S)-N-(1-Ethyl-pyrrolidin-2-ylmethyl)-5-iodo-2-methoxy-benzamide in rat striatum 60 min after intravenous administration; type: functional, organism-based
[4] = Ratio of uptake of [125I]- (S)-N-(1-Ethyl-pyrrolidin-2-ylmethyl)-5-iodo-2-methoxy-benzamide in striatum:cerebellum; 7.2:1; type: functional
[5] = Ratio of uptake of [125I]- (S)-N-(1-Ethyl-pyrrolidin-2-ylmethyl)-5-iodo-2-methoxy-benzamide in striatum:frontal cortex; 4.7:1; type: functional
[6] = Ratio of uptake of [125I]- (S)-N-(1-Ethyl-pyrrolidin-2-ylmethyl)-5-iodo-2-methoxy-benzamide in striatum:striatum; 1.0:1; type: functional

Chain of D(2) dopamine receptor (P61169 whole entry): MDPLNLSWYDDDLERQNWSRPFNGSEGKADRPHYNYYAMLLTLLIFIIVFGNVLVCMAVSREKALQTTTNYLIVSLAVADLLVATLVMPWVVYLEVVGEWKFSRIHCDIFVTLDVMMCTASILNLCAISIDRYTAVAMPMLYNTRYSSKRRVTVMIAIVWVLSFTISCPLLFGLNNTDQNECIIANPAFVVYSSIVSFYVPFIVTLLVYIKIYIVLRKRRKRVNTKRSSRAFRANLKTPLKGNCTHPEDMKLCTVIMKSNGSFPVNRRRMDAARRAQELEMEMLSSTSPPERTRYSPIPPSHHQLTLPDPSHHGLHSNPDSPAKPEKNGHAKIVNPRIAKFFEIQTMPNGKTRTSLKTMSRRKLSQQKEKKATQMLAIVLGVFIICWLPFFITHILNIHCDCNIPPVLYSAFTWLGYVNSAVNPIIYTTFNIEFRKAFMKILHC

| IC50 (D(2) dopamine receptor) [nM] | Compound | Radioactivity (Rattus norvegicus [1]) [nCi g-1] | Radioactivity (Rattus norvegicus [2]) [nCi g-1] | Radioactivity (Rattus norvegicus [3]) [nCi g-1] | Ratio [4] | Ratio [5] | Ratio [6] |
| --- | --- | --- | --- | --- | --- | --- | --- |
| 1.5 | CCN1CCC[C@H]1CNC(=O)c1cc(I)ccc1OC [IODOPRIDE] |  |  |  |  |  |  |
| 113 | CCN1CCC[C@@H]1CNC(=O)c1cc(I)ccc1OC | 7.8 | 11.9 | 56.2 | 7.2 | 4.7 | 1 |
